Assay results reported in US9029359B2, “Heteroaryl Btk inhibitors” (Biogen Idec MA, Inc., priority 2009, dated 2015).

Biological target: T1, BTK (Homo sapiens, UniProt Q06187)
T1 construct: purchased Upstate 14-552
Test: In vitro BTK kinase assay: BTK-POLYGAT-LS ASSAY
Format: biochemical
Conditions: ATP 10 uM
How it was run: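 BTK phosphorylation of polyGAT (100 nM final) with ATP at 10 μM final, 10 mM Tris-HCl pH 7.5 kinase buffer, quenched by EDTA after 30 min. Potency given as IC50.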

T1 sequence (Q06187 whole entry): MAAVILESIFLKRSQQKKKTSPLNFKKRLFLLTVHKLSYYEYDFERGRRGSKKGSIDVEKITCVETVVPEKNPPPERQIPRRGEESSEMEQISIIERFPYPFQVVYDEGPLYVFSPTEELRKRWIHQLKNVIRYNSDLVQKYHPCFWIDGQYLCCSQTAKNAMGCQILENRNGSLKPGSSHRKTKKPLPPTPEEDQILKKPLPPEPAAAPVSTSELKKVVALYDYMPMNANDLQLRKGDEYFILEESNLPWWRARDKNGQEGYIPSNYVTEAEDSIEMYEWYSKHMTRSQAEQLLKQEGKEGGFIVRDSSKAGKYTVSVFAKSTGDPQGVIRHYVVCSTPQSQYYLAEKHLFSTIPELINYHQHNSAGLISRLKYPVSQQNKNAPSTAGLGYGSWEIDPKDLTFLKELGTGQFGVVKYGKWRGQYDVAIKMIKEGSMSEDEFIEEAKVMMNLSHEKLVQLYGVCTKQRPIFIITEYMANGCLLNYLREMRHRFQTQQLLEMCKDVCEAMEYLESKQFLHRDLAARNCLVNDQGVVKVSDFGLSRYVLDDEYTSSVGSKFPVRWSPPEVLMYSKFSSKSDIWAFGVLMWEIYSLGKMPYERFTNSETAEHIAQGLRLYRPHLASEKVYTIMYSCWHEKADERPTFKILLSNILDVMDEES

## CC(C)Oc1cccc(NCC(=O)N[C@@H]2CCCN(c3ncnc4[nH]ccc34)C2)c1 [Example 315]
  IC50: 0.1 to 0.999 µM

## CCOc1cccc(NCC(=O)N[C@@H]2CCCN(c3ncnc4[nH]ccc34)C2)c1 [Example 316]
  IC50: 0.1 to 0.999 µM

## O=C(CNc1ccc(Cl)cc1Cl)N[C@@H]1CCCN(c2ncnc3[nH]ccc23)C1 [Example 317]
  IC50: 0.1 to 0.999 µM

## O=C(CNc1ccccc1F)N[C@@H]1CCCN(c2ncnc3[nH]ccc23)C1 [Example 318]
  IC50: 0.1 to 0.999 µM

## O=C(CNc1cc(Cl)ccc1Cl)N[C@@H]1CCCN(c2ncnc3[nH]ccc23)C1 [Example 319]
  IC50: 0.1 to 0.999 µM

## Nc1ncnc(N2CCC[C@@H](NC(=O)CNc3cc(Cl)cc(Cl)c3)C2)c1CCCO [Example 320]
  IC50: 0.1 to 0.999 µM

## O=C(CNc1c(F)cccc1F)N[C@@H]1CCCN(c2ncnc3[nH]ccc23)C1 [Example 321]
  IC50: 0.1 to 0.999 µM

## COc1cccc(NCC(=O)N[C@@H]2CCCN(c3ncnc4[nH]ccc34)C2)c1 [Example 322]
  IC50: 0.1 to 0.999 µM

## O=C(CNc1ccccc1)N(CCN1CCOCC1)C1CCCN(c2ncnc3[nH]ccc23)C1 (centres unmarked) [Example 323]
  IC50: 0.1 to 0.999 µM

## O=C(CNc1cccc2c1CCC2)N[C@@H]1CCCN(c2ncnc3[nH]ccc23)C1 [Example 324]
  IC50: 0.1 to 0.999 µM

## NC(=O)c1c(N)ncnc1N1CCC[C@@H](NC(=O)CNc2cc(Cl)cc(Cl)c2)C1 [Example 326]
  IC50: 0.1 to 0.999 µM

## COc1cc(NCC(=O)N[C@@H]2CCCN(c3ncnc4[nH]ccc34)C2)cc(C(F)(F)F)c1 [Example 327]
  IC50: 0.1 to 0.999 µM

## O=C(CNc1cccc2nccn12)NC1CCCN(c2ncnc3[nH]ccc23)C1 (centres unmarked) [Example 328]
  IC50: > 10 µM

## O=C(CNc1cccc2ccncc12)NC1CCCN(c2ncnc3[nH]ccc23)C1 (centres unmarked) [Example 329]
  IC50: > 10 µM

## O=C(CNC(=O)N1CCCCC1)NC1CCCN(c2ncnc3[nH]ccc23)C1 (centres unmarked) [Example 330]
  IC50: > 10 µM

## CC(C)n1ccc(NCC(=O)NC2CCCN(c3ncnc4[nH]ccc34)C2)n1 (centres unmarked) [Example 331]
  IC50: > 10 µM

## O=C(CNc1cccc2ncccc12)NC1CCCN(c2ncnc3[nH]ccc23)C1 (centres unmarked) [Example 332]
  IC50: > 10 µM

## O=C(CNc1cccc2cnccc12)NC1CCCN(c2ncnc3[nH]ccc23)C1 (centres unmarked) [Example 333]
  IC50: 1 to 10 µM

## O=C(CNc1cccc(C(F)(F)F)n1)NC1CCCN(c2ncnc3[nH]ccc23)C1 (centres unmarked) [Example 334]
  IC50: 1 to 10 µM

## O=C(CNc1ccc2c(c1)OCO2)NC1CCCN(c2nccc3[nH]ccc23)C1 (centres unmarked) [Example 335]
  IC50: > 10 µM

## O=C(CNc1cccc2c1OCCO2)NC1CCCN(c2ncnc3[nH]ccc23)C1 (centres unmarked) [Example 336]
  IC50: > 10 µM

## O=C(CNc1cccc(N2CCNC2=O)c1)NC1CCCN(c2ncnc3[nH]ccc23)C1 (centres unmarked) [Example 337]
  IC50: > 10 µM

## O=C(CNc1cccc(N2CCCC2=O)c1)NC1CCCN(c2ncnc3[nH]ccc23)C1 (centres unmarked) [Example 338]
  IC50: 1 to 10 µM

## CNC(=O)c1cccc(NCC(=O)NC2CCCN(c3ncnc4[nH]ccc34)C2)c1 (centres unmarked) [Example 339]
  IC50: > 10 µM

## COc1cccc(NCC(=O)NC2CCCN(c3nccc4[nH]ccc34)C2)c1OC (centres unmarked) [Example 340]
  IC50: > 10 µM

## CC(O)c1cccc(NCC(=O)NC2CCCN(c3ncnc4[nH]ccc34)C2)c1 (centres unmarked) [Example 341]
  IC50: > 10 µM

## Cn1cccc(NCC(=O)NC2CCCN(c3ncnc4[nH]ccc34)C2)c1=O (centres unmarked) [Example 342]
  IC50: > 10 µM

## CN1CCN(c2cccc(NCC(=O)NC3CCCN(c4ncnc5[nH]ccc45)C3)c2)CC1 (centres unmarked) [Example 343]
  IC50: > 10 µM

## CNC(=O)c1cnc(NC2CCCN(c3ncnc4[nH]ccc34)C2)s1 (centres unmarked) [Example 344]
  IC50: > 10 µM

## CN(C)Cc1cccc(NCC(=O)NC2CCCN(c3ncnc4[nH]ccc34)C2)c1 (centres unmarked) [Example 345]
  IC50: > 10 µM

## O=C(CNc1cccc(CN2CCCCC2)c1)NC1CCCN(c2ncnc3[nH]ccc23)C1 (centres unmarked) [Example 346]
  IC50: > 10 µM

## Cc1cc(NCC(=O)NC2CCCN(c3ncnc4[nH]ccc34)C2)n(C)n1 (centres unmarked) [Example 347]
  IC50: > 10 µM

## COc1ccc(NCC(=O)NC2CCCN(c3ncnc4[nH]ccc34)C2)cc1 (centres unmarked) [Example 348]
  IC50: > 10 µM

## O=C(CNc1cccc(-c2nnco2)c1)NC1CCCN(c2ncnc3[nH]ccc23)C1 (centres unmarked) [Example 349]
  IC50: > 10 µM

## Cc1cc(NCC(=O)NC2CCCN(c3ncnc4[nH]ccc34)C2)on1 (centres unmarked) [Example 350]
  IC50: > 10 µM

## Cn1nc(-c2ccccc2)cc1NCC(=O)NC1CCCN(c2ncnc3[nH]ccc23)C1 (centres unmarked) [Example 351]
  IC50: > 10 µM

## O=C(CNc1ccccn1)NC1CCCN(c2ncnc3[nH]ccc23)C1 (centres unmarked) [Example 352]
  IC50: 1 to 10 µM

## O=C(CNc1ccncc1)NC1CCCN(c2ncnc3[nH]ccc23)C1 (centres unmarked) [Example 353]
  IC50: > 10 µM

## O=C(CNC1CCCCC1)NC1CCCN(c2ncnc3[nH]ccc23)C1 (centres unmarked) [Example 354]
  IC50: > 10 µM

## O=C(CNC1CCc2ccccc21)NC1CCCN(c2ncnc3[nH]ccc23)C1 (centres unmarked) [Example 355]
  IC50: > 10 µM

## O=C(CNC1CCCc2ccccc21)NC1CCCN(c2ncnc3[nH]ccc23)C1 (centres unmarked) [Example 356]
  IC50: > 10 µM

## O=C(CNCC1CCCCC1)NC1CCCN(c2ncnc3[nH]ccc23)C1 (centres unmarked) [Example 357]
  IC50: > 10 µM

## CC(=O)Nc1cccc(NCC(=O)NC2CCCN(c3ncnc4[nH]ccc34)C2)c1 (centres unmarked) [Example 358]
  IC50: > 10 µM

## O=C(CNc1ccccc1)N[C@H]1CCN(c2ncnc3[nH]ccc23)C1 [Example 359]
  IC50: > 10 µM

## O=C(CNc1ccccc1)N[C@@H]1CCN(c2ncnc3[nH]ccc23)C1 [Example 360]
  IC50: > 10 µM

## O=C(NC1CCCN(c2ncnc3[nH]ccc23)C1)C1NCc2ccccc21 (centres unmarked) [Example 361]
  IC50: > 10 µM

## O=C(NC1CCCN(c2ncnc3[nH]ccc23)C1)c1cc2ccccc2[nH]1 (centres unmarked) [Example 362]
  IC50: 1 to 10 µM

## O=C(CNC1CCCN(c2ncnc3[nH]ccc23)C1)Nc1ccccc1 (centres unmarked) [Example 363]
  IC50: > 10 µM

## O=C(NC1CCCCN(c2ncnc3[nH]ncc23)C1)[C@H](Nc1cc(Cl)cc(Cl)c1)C1CC1 (some centres unmarked) [Example 364]
  IC50: < 0.1 µM

## CC[C@H](C)[C@@H](Nc1cc(F)cc(Cl)c1)C(=O)N[C@H]1CN(c2ncnc3[nH]ncc23)CC[C@@H]1C [Example 365]
  IC50: < 0.1 µM

## C[C@H]1CCN(c2ncnc3[nH]ncc23)C[C@@H]1NC(=O)CNc1ccccc1S(=O)(=O)N1CCCCC1 [Example 366]
  IC50: < 0.1 µM

## CC(C)Oc1ccccc1NCC(=O)N[C@@H]1CCCN(c2ncnc3[nH]ncc23)C1 [Example 367]
  IC50: 0.1 to 0.999 µM

## CN(C(C)(C)C)S(=O)(=O)c1ccccc1NCC(=O)N[C@@H]1CCCN(c2ncnc3[nH]ncc23)C1 [Example 368]
  IC50: 0.1 to 0.999 µM

## CC[C@@H](Nc1cc(Cl)cc(Cl)c1)C(=O)N[C@H]1CN(c2ncnc3[nH]ncc23)CC[C@@H]1C [Example 369]
  IC50: 0.1 to 0.999 µM

## CC1CCCN(S(=O)(=O)c2ccccc2NCC(=O)N[C@@H]2CCCN(c3ncnc4[nH]ncc34)C2)C1 (some centres unmarked) [Example 370]
  IC50: < 0.1 µM

## CCC[C@@H](Nc1cccc2c1OC(F)(F)O2)C(=O)N[C@@H]1CCCN(c2ncnc3[nH]ncc23)C1 [Example 371]
  IC50: 0.1 to 0.999 µM

## CC1CN(S(=O)(=O)c2ccccc2NCC(=O)N[C@@H]2CCCN(c3ncnc4[nH]ncc34)C2)CC(C)O1 (some centres unmarked) [Example 372]
  IC50: 0.1 to 0.999 µM

## O=C([C@H](Nc1cc(F)cc(Cl)c1)C1CC1)N1CCCCC12CCCN(c1ncnc3[nH]ncc13)C2 (some centres unmarked) [Example 373]
  IC50: 1 to 10 µM

## O=C(CNc1ccccc1C(=O)N1CCOCC1)N[C@@H]1CCCN(c2ncnc3[nH]ccc23)C1 [Example 374]
  IC50: 0.1 to 0.999 µM
